# Reference: US20260042764A1, “COMPOSITIONS AND METHODS FOR INHIBITION OF KRAS” (TheRas, Inc., priority 2022, published 2026)
# How the values were obtained:
# [1] = target: T1, Avi-KRAS G12D (1-169) GppNHp/RAF1 RBD-3xFLAG (52-151) (Homo sapiens, UniProt P01116, G12D); assay: Raf1-KRAS G12D-GppNHP disruption HTRF assay (Biological Example 1); type: binding
# T1 construct: Avi-KRAS G12D (1-169)
# How it was run: (§1)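 Using HTRF, the loss of KRAS–effector RAF1 complex was quantified in 50 mM Tris pH 7.5 buffer with 100 mM NaCl and 0.1% BSA. The protein step and reagent step ran 1 h each at room temperature. Activity normalized with DMSO taken as 100%.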
# [2] = target: T2, Avi-KRAS G12R (1-169) GppNHp/RAF1 RBD-3xFLAG (52-151) (Homo sapiens, UniProt P01116, G12R); assay: Raf1-KRAS G12R-GppNHP disruption HTRF assay (Biological Example 1); type: binding
# T2 construct: Avi-KRAS G12R (1-169)
# T2 sequence (P01116 1-169 isoform P01116-2 G12R): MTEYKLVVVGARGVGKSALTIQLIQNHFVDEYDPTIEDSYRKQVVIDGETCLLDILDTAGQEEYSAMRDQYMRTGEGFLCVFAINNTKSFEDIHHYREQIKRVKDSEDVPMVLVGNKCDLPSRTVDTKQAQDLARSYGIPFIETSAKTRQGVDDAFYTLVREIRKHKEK
# How it was run: as §1
# [3] = target: T3, Avi-KRAS G12V (1-169) GppNHp/RAF1 RBD-3xFLAG (52-151) (Homo sapiens, UniProt P01116, G12V); assay: Raf1-KRAS G12V-GppNHP disruption HTRF assay (Biological Example 1); type: binding
# T3 construct: Avi-KRAS G12V (1-169)
# T3 sequence (P01116 1-169 isoform P01116-2 G12V): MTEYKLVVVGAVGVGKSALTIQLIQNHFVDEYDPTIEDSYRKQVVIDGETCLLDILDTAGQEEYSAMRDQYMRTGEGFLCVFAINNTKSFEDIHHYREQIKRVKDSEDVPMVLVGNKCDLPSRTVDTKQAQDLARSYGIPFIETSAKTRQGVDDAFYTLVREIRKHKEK
# How it was run: as §1
# [4] = target: T4, Avi-KRAS WT (1-169) GppNHp/RAF1 RBD-3xFLAG (52-151) (Homo sapiens, UniProt P01116); assay: Raf1-KRAS WT-GppNHP disruption HTRF assay (Biological Example 1); type: binding
# T4 construct: Avi-KRAS WT (1-169)
# T4 sequence (P01116 1-169 isoform P01116-2): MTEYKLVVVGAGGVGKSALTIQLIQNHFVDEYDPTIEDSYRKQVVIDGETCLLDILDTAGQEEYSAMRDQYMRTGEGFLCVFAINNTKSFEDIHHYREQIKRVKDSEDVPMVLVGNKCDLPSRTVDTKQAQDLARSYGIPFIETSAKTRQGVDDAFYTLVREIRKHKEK
# How it was run: as §1
# [5] = system: GP2d cells (KRAS G12D); assay: Cell-based pERK HTRF assay in GP2d cell (Biological Example 2); settings: GP2d, GP2d (KRAS G12D) cells, pERK HTRF
# How it was run: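 60 min compound, 0.25% DMSO, 9-pt half-log curve from 1 μM or 100 nM; DMEM/10% FBS.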
# [6] = system: SW620 cells (KRAS G12V); assay: Cell-based pERK HTRF assay in SW620 cell (Biological Example 4); settings: Homo sapiens, SW-620, SW620 (KRAS G12V) cells, pERK HTRF
# How it was run: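 Read-out: HTRF pERK signal (excitation 320 nm, emission 615 nm) from lysates of SW620 cells after 4 h compound exposure. Dose range was 9 points, half-log steps from 1 μM, in 0.25% DMSO; antibody incubation ran 4–24 h at room temperature.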
# [7] = KRAS G12D, GppNHp-loaded, class symbols
# [8] = KRAS G12R, GppNHp-loaded, class symbols
# [9] = KRAS G12V, GppNHp-loaded, class symbols
# [10] = KRAS WT, GppNHp-loaded, class symbols
# [11] = KRAS G12D, GppNHp-loaded, Table 11
# [12] = KRAS G12R, GppNHp-loaded, Table 11
# [13] = KRAS G12V, GppNHp-loaded, Table 11
# [14] = KRAS WT, GppNHp-loaded, Table 11
# T1 sequence (P01116 1-169 isoform P01116-2 G12D): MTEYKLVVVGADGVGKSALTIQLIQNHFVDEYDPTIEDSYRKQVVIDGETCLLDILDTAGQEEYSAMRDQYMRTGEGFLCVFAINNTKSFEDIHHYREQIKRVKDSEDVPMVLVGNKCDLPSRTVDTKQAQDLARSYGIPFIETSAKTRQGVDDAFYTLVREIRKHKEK
SMILES,"IC50 [1, 7] [nM]","IC50 [2, 8] [nM]","IC50 [3, 9] [nM]","IC50 [4, 10] [nM]",IC50 ([5]; class symbols) [nM],IC50 ([6]; class symbols) [nM],IC50 ([1]; KRAS G12D-GppNHp/RAF1 RBD HTRF) [nM],IC50 ([2]; KRAS G12R-GppNHp/RAF1 RBD HTRF) [nM],IC50 ([3]; KRAS G12V-GppNHp/RAF1 RBD HTRF) [nM],IC50 ([4]; KRAS WT-GppNHp/RAF1 RBD HTRF) [nM],IC50 [5] [nM],IC50 [6] [nM],"IC50 [1, 11] [nM]","IC50 [2, 12] [nM]","IC50 [3, 13] [nM]","IC50 [4, 14] [nM]"
"CCN(c1nc(OC[C@@]23CCCN2C[C@H](F)C3)nc2c(F)c(-c3ccc(F)c4sc(N)c(C#N)c34)c(C(F)(F)F)cc12)[C@H]1CCN(C(=O)c2cncnc2)C1 (atropisomer, axis not shown) [Compound 727]",< 100,< 100,100 to 1000,100 to 1000,< 100,< 100,,,,,,,,,,
"CCN(c1nc(OC[C@@]23CCCN2C[C@H](F)C3)nc2c(F)c(-c3ccc(F)c4sc(N)c(C#N)c34)c(C(F)(F)F)cc12)[C@H]1CCN(C(=O)N2C[C@@H]3C[C@H]2CO3)C1 (atropisomer, axis not shown) [Compound 654]",< 100,< 100,< 100,< 100,< 100,< 100,,,,,,,,,,
C[C@@H]1CC[C@@H](O)CN1c1nc(OC[C@@]23CCCN2C[C@H](F)C3)nc2c(F)c(-c3ccc(F)c4sc(N)c(C#N)c34)c(C(F)(F)F)cc12 [Compound 314],,,,,,,100 to 1000,100 to 1000,100 to 1000,100 to 1000,< 100,< 100,,,,
"CCN1C[C@H](N(CC)c2nc(OC[C@@]34CCCN3C[C@H](F)C4)nc3c(F)c(-c4ccc(F)c5sc(N)c(C#N)c45)c(C(F)(F)F)cc23)CC1=O (atropisomer, axis not shown) [Compound 699]",100 to 1000,100 to 1000,100 to 1000,100 to 1000,< 100,< 100,,,,,,,,,,
CCN(CC)C(=O)c1cc2n(n1)CCN(c1nc(OCC34CCCN3CC(F)C4)nc3c(F)c(-c4ccc(F)c5sc(N)c(C#N)c45)c(C(F)(F)F)cc13)C2 (stereo not drawn) [Compound 645],100 to 1000,100 to 1000,100 to 1000,100 to 1000,< 100,< 100,,,,,,,,,,
"CCN(c1nc(OC[C@@]23CCCN2C[C@H](F)C3)nc2c(F)c(-c3ccc(F)c4sc(N)c(C#N)c34)c(C(F)(F)F)cc12)[C@H]1CC(=O)N(CCOC)C1 (atropisomer, axis not shown) [Compound 815]",< 100,< 100,< 100,< 100,< 100,< 100,,,,,,,,,,
CCN(c1nc(OC[C@@]23CCCN2C[C@H](F)C3)nc2c(F)c(-c3ccc(F)c4sc(N)c(C#N)c34)c(C(F)(F)F)cc12)[C@H]1CC(=O)N(C(C)C)C1 [Compound 528],,,,,,,1000 to 10000,1000 to 10000,1000 to 10000,1000 to 10000,< 100,100 to 1000,,,,
C[C@H]1[C@@H](N(C)c2nc(OC[C@@]34CCCN3C[C@H](F)C4)nc3c(F)c(-c4ccc(F)c5sc(N)c(C#N)c45)c(C(F)(F)F)cc23)CCN1C(=O)CO [Compound 240],,,,,,,,,,,100 to 1000,> 1000,1000 to 10000,1000 to 10000,1000 to 10000,1000 to 10000
N#Cc1c(N)sc2c(F)ccc(-c3c(C(F)(F)F)cc4c(N5C[C@@H]6[C@H]5CCN6C(=O)C5CC5)nc(OC[C@@]56CCCN5C[C@H](F)C6)nc4c3F)c12 [Compound 535],,,,,,,1000 to 10000,1000 to 10000,1000 to 10000,1000 to 10000,< 100,< 100,,,,
COC[C@H]1CCN1c1nc(OC[C@@]23CCCN2C[C@H](F)C3)nc2c(F)c(-c3ccc(F)c4sc(N)c(C#N)c34)c(C(F)(F)F)cc12 [Compound 270],,,,,,,,,,,100 to 1000,100 to 1000,100 to 1000,100 to 1000,100 to 1000,100 to 1000
"CCN(c1nc(OC[C@@]23CCCN2C[C@H](F)C3)nc2c(F)c(-c3ccc(F)c4sc(N)c(C#N)c34)c(C(F)(F)F)cc12)[C@H]1CCN(C(=O)C2CC(F)(F)C2)C1 (atropisomer, axis not shown) [Compound 550]",,,,,,,< 100,< 100,100 to 1000,< 100,< 100,< 100,,,,
